Experiments:
[1] = Ames test (mutagenic power); assay type: cell-based
Procedure: The tests carried out to measure the toxicity of the initiators are the Ames test and the LLNA sensitization test. The Ames test makes it possible to measure the mutagenic power of the initiator and the LLNA sensitization test makes it possible to detect the sensitizing power of the initiator. The cytotoxicity of the initiators can also be detected in this latter test (see examples). The following toxicology tests were carried out: Ames test: this Ames test makes it possible to measure the mutagenic power of the product Table I below indicates the results obtained for the various photoinitiators prepared above.

[2] = LLNA sensitization test; assay type: in vivo; conditions: cytotoxicity can also be detected
Procedure: The tests carried out to measure the toxicity of the initiators are the Ames test and the LLNA sensitization test. The Ames test makes it possible to measure the mutagenic power of the initiator and the LLNA sensitization test makes it possible to detect the sensitizing power of the initiator. The cytotoxicity of the initiators can also be detected in this latter test (see examples).
The following toxicology tests were carried out:
LLNA sensitization test: this test makes it possible to detect the sensitizing power of the product. The cytotoxicity of the products can also be detected in the course of the test.
Table I below indicates the results obtained for the various photoinitiators prepared above.

[3] = Reactivity under UV irradiation of the photoinitiator; conditions: compared with the other toxic photo-initiators
Source text: The crosslinkable compositions comprise the non-toxic initiator prepared in Example 4.

Structure (SMILES)	Ames [1]	LLNA sensit. [2]	reactivity under UV irradiation [3]
Cc1ccc([I+]c2ccc(C)cc2)cc1 [Example 2]	positive	positive	–
Cc1ccc([I+]c2ccc(Oc3ccccc3)cc2)cc1 [Example 9]	cytotoxic	negative	–
CC(C)c1ccc([I+]c2ccc(C(C)C)cc2)cc1 [Example 10]	negative	positive	–
Cc1ccc([I+]c2ccc(C)cc2)cc1 [Example 1, ditolyliodonium chloride]	cytotoxic	cytotoxic	–
COc1ccc([I+]c2ccc(OC)cc2)cc1 [Example 11]	cytotoxic	cytotoxic	–
CCOc1ccc([I+]c2ccc(C)cc2)cc1 [Example 8]	positive and cytotoxic	positive	–
Cc1ccc([I+]c2ccc(C(C)C)cc2)cc1 [Example 4]	–	–	comparable
Cc1ccc([I+]c2ccc(C(C)C)cc2)cc1 [Example 3, cumyltolyliodonium chloride]	negative	negative	–

Source: US6291540A, “Non-toxic initiators and their use for preparing stable and non-toxic polymers” (Rhodia Chimie, priority 1997, dated 2001)
